Columns and labels:
CAT-TAG in CHO cells = experiment: CAT-TAG expression in transfected CHO cells (FAST CAT assay); format: cell-based; settings: cells with O-RS/O-tRNA and CAT-TAG, grown in the presence of dansyl-alanine
Excerpt: We first redesigned the suppressor O-tRNA gene to make it suitable for expression in mammalian cells by altering the 5′ UTR, mutating the promoter regions and generating a tandem repeat, thereby forming SEQ ID NO:6, and subcloned the O-RS gene (SEQ ID NO:12) into a mammalian expression vector. We transformed CHO cells with the plasmids encoding the modified O-RS/O-tRNA genes and a marker gene, Chloramphenicol Acetyltransferase (“CAT”), containing a nonsense TAG codon (“CAT-TAG”). Expression of CAT-TAG was assessed using a fluorescent-based assay (FAST CAT, Invitrogen, Inc.) that measures the conversion of chloramphenicol-BODIPY (FL-CM) to 3-acetyl-chloramphenicol-BODIPY (FL-AcCM) by thin layer chromatography. […] As a positive control, cells were transfected with wildtype CAT cDNA.

yeast strain MaV203 = experiment: Rescue of GAL4 (TAG) expression by DANSYL-O-RS/O-tRNA pair, growth in the absence of uracil; format: cell-based; settings: MaV203 with DANSYL-O-RS, suppressor O-tRNA and GAL4 TAG
Excerpt: The yeast strain MaV203 was transfected with plasmids coding for the DANSYL-O-RS (SEQ ID NO:12, derived from E. coli), suppressor O-tRNA (SEQ ID NO:5 derived from E. coli) and a marker gene, GAL4, containing nonsense TAG codons. Yeast harboring a functional DANSYL-RSOR and suppressor tRNA OR will “rescue” expression of GAL4. The MAV203 yeast strain contains the URA3 gene (required for uracil biosynthesis) under control of the GAL4 promoter. When grown in the absence of uracil, MAV203 yeast will not grow unless “rescue” of GAL4 expression occurs.

`CN(C)c1cccc2c(S(=O)(=O)NC[C@H](N)C(=O)O)cccc12` was tested, and the “CAT activity of transfected CHO cells” value (CAT-TAG in CHO cells) was “expressed significant CAT activity” and the “growth of transformed yeast in the absence of uracil” value (yeast strain MaV203) was “Growth was only observed when the transformed yeast were grown in the presence of dansyl-alanine”.
